Data published in patent publication US20240408081A1, “NOVEL SYNERGISTIC COMBINATIONS AND METHODS OF USE THEREOF FOR TREATING CANCERS” (UNIVERSITE DE BORDEAUX, priority 2021, published 2024).
pIC50: −log10 of the molar value.

Assays:
[1] = system: NEM157i, SU-DIPG-IVi and NEM163i DMG cells; test: Proliferation / cell viability assay (Sulforhodamine B) in DMG cell lines; type: cell-based, human; details: SU-DIPG-IVi and NEM157i; up to 30 μM; absence of GSK-126
Method: Cell growth was measured with the In vitro Toxicology Assay kit (Sulforhodamine B, Sigma Aldrich, Saint Quentin Fallavier, France) according to manufacturer's instructions. Cells were plated at a density of 2000 cells per well in 96-well plates in triplicates. Absorbance was measured at 565 nm using the CLARIOstar multiplate reader (BMG Labtech, Champigny-sur-Marne, France) at indicated time points.

[2] = system: NEM157i, NEM163i and primary BXdmg1 cells; test: DMG cell migration, wound scratch assay (IncuCyte); type: cell-based, human
Method: 2×10^4 cells/well were placed in a 96-well and incubated for 24h. An IncuCyte Wound Maker (96-pin wound making tool) was used to make scratches.
Migration was monitored by using the IncuCyte S3 live-cell analysis system (Essen BioScience, Ltd, Royston Hertfordshire, United Kingdom). […] Following functions have been used to optimize visibility of the cells: greyscale mode, bichrome mode, negative, contrast/luminosity, exposition/gamma, negative.

Huh6 cells = test: Huh6 tumor xenografts in NSG mice; type: in vivo, NOD/LtSz-scid IL2R gamma null (NSG) mice; details: intraperitoneal; GSK-126 50 mg/kg, ATR 20 mg/kg 3-times a week; cisplatin 1 mg/kg twice a week
Method: NOD/LtSz-scid IL2R gamma null (NSG) mice were bred in standard conditions compliant with regulatory bodies (French government). Sterilized food and water were accessible ad libitum. One million of Huh6 cells in 50% of Matrigel were subcutaneously injected in a total volume of 100 μl in the right flank of 8- to 9-week-old female mice (26-32 g; APAFIS #32917-2021121316283534 v2, Agreement #B33063916, Ministère de l'Enseignement Supérieur, de la Recherche et de l'Innovation).
Tumor growth was monitored by caliper measurement until tumors reached an average volume of 250 mm3 (at day 12, see arrow). […] The vehicle (PBS with 5% DMSO) was injected 3-times a week. Tumor growth was monitored during 16 additional days until tumors control reached a size of 2000 mm3. Thus, all mice were euthanized. Blood was collected from all euthanatized mice and circulating ASAT, ALAT, creatinine, and urea were measured to evaluate the toxicity of the different treatments on the liver and kidneys.

[3] = system: Huh6 and HepG2 hepatoblastoma cells; test: Growth and viability of hepatoblastoma cells (Huh6 and HepG2), 2D and 3D spheroid; type: cell-based, human
Method: (§1) For 2D culture, a total of 2,000 cells/well for Huh6 and 3,000 cells/well for HepG2 were seeded in 96-well microtiter plates. Cell growth was measured at 24 h, 48h, 72h or 96h after genetic manipulation and at 48h or 72h after drug treatment using the in vitro MTS assay Kit or Sulforhodamine B (SRB, Absorbance at 565 nm) assay (Sigma) following manufacturer's instructions. For 3D culture, spheroids were formed as described above and microplates were incubated in an IncuCyte® S3 live cell analysis system and scanned every 8 hours. For genetic manipulation, the lentiviral transductions or the gene depletions were done before the plating. For drug treatments, depending on the experiment and the drug, spheroids were treated at day 4 or 5 for 48h or 72h. Cell viability assay in spheroids was done using 1 μM calcein AM (BioLegend) and 2 μM ethidium homodimer 1 (Sigma) for 30 minutes at 37° C. Spheroids were imaged using an IncuCyte® S3 live cell analysis system. For all cell viability assays, drugs were used at half maximal inhibitory concentration (IC50).

Huh6 and HepG2 cells = test: Clonogenicity assay; type: cell-based, human; details: GSK-126 3 and 4 μM for Huh6 and HepG2; ATR 8 μM; SIM 4 μM; 10 days
Method: Huh6 and HepG2 cells were seeded at 500 and 1000 cells/well respectively in 12-well plates. After attachment, cells were treated with drugs.
Following incubation at 37° C. for 10 days, the cells were fixed with 4% PFA and stained with 0.05% crystal violet. Reading under the Fusion FX (Vilber Lourmat).

[4] = rat; cited from earlier work
[5] = system: histone H3K27me3 in breast and prostate cancer cells; details: cited from earlier work
HepG2 cells = test: Cell viability assay (CellTiter 96 AQueous One / MTS) in HepG2; type: cell-based, human
Method: as §1

Question: With `COCCNC(=O)Nc1ccc2nc(-c3cccs3)c(-c3cccs3)nc2c1` [ACSS2 inhibitor] as the molecule, how does the “effect on DMG cell proliferation, inhibitor alone” value (from here on “effect … inhibitor alone”) [1] read?
Answer: Its value is “no effect”.

Question: Which “migration compared to DMSO” value [2] does the source give for `CC(C)c1c(C(=O)Nc2ccccc2)c(-c2ccccc2)c(-c2ccc(F)cc2)n1CC[C@@H](O)C[C@@H](O)CC(=O)O` [Atorvastatin] here?
Answer: Its value is “slowed”.

Question: And the “development of hepatoblastoma in mice (tumor volume)” value (Huh6 cells)?
Answer: The value was “no effect”.

Question: What about the “effect … inhibitor alone” value [1] of the same molecule?
Answer: Its value is “no effect”.

Question: What about the “concentration with antitumor effect, statin alone” value ([3]; 72 h) of the same molecule?
Answer: The value was ≥ 50 µM.

Question: And the “proliferation and survival of hepatoblastoma cells (clonogenic cell assay)” value (Huh6 and HepG2 cells)?
Answer: Its value is “little effect”.

Question: With `CCCc1cc(C)[nH]c(=O)c1CNC(=O)c1cc(-c2ccnc(N3CCN(C)CC3)c2)cc2c1cnn2C(C)C` [GSK343, N-[(6-methyl-2-oxo-4-propyl-1H-pyridin-3-yl)methyl]-6-[2-(4-methylpiperazin-1-yl)pyridin-4-yl]-1-propan-2-ylindazole-4-carboxamide] as the molecule, how does the clearance [4] read?
Answer: Its clearance is “high clearance”.

Question: What about the “histone H3K27me3 level” value [5] of the same molecule?
Answer: Its value is “suppress”.

Question: With `Cc1cc(C)c(CNC(=O)c2cc(-c3ccc(N4CCN(C)CC4)nc3)cc3c2cnn3C(C)C)c(=O)[nH]1` [GSK926, N-[(4,6-dimethyl-2-oxo-1H-pyridin-3-yl)methyl]-6-[6-(4-methylpiperazin-1-yl)pyridin-3-yl]-1-propan-2-ylindazole-4-carboxamide] as the molecule, how does the “histone H3K27me3 level” value [5] read?
Answer: The value was “suppress”.

Question: For `CCC(C)(C)C(=O)O[C@H]1C[C@@H](C)C=C2C=C[C@H](C)[C@H](CC[C@@H]3C[C@@H](O)CC(=O)O3)[C@H]21` [Simvastatin], which “concentration with antitumor effect, statin alone” value ([3]; 72 h) is on record?
Answer: The value was ≥ 20 µM.

Question: Which “effective concentrations on growth of hepatoblastoma cells” value ([3]; 48 h) does the source give for `CCN(c1cc(-c2ccc(CN3CCOCC3)cc2)cc(C(=O)NCc2c(C)cc(C)[nH]c2=O)c1C)C1CCOCC1` [Tazemetostat, N-[(4,6-dimethyl-2-oxo-1H-pyridin-3-yl)methyl]-3-[ethyl(oxan-4-yl)amino]-2-methyl-5-[4-(morpholin-4-ylmethyl)phenyl]benzamide] here?
Answer: Its value is “above 20 μM”.

Question: And the “sensitivity of hepatoblastoma cells in presence of Simvastatin or Atorvastatin” value ([3]; 72 h, 8 μM Atorvastatin or 4 μM Simvastatin)?
Answer: The value was “significantly potentiates”.

Question: For `CN(C/C=C/C#CC(C)(C)C)Cc1cccc2ccccc12` [Terbinafine], which “effect … inhibitor alone” value [1] is on record?
Answer: The value was “no effect”.

Question: For `N.N.[Cl][Pt][Cl]` [cisplatin], which “development of hepatoblastoma in mice (tumor volume)” value (Huh6 cells) is on record?
Answer: Its value is “impeded tumor growth”.

Question: What about the pIC50 (HepG2 cells) of the same molecule?
Answer: The pIC50 was 4.92.
